Laboratory results: patent US20240166652A1, “MODULATORS OF THE INTEGRATED STRESS PATHWAY” (Calico Life Sciences LLC, priority 2017, published 2024)

The molecules below were run on ATF4 luciferase reporter in HEK293T cells (assay: ATF4-Luc assay (ATF4 luciferase reporter, tunicamycin-treated HEK293T cells)). Settings: Homo sapiens, HEK-293T; HEK293T cells carrying the ATF4 luciferase reporter, 1 μg/mL tunicamycin, 7 hours.
Type: cell-based, human

SMILES | EC50
COc1cc(OCC(=O)NC23CCC(NC(=O)COc4ccc(Cl)c(F)c4)(CC2)C[C@@H]3O)ccc1F [Compound 771, 2-(4-chloro-3-fluorophenoxy)-N-{(3S)-4-[2-(4-fluoro-3-methoxyphenoxy)acetamido]-3-hydroxybicyclo[2.2.2]octan-1-yl}acetamide] | < 10 nM
Cc1cc(F)ccc1OCC(=O)NC12CCC(NC(=O)COc3ccc(Cl)c(F)c3)(CC1)[C@@H](O)C2 [Compound 755, 2-(4-chloro-3-fluorophenoxy)-N-{(2S)-4-[2-(4-fluoro-2-methylphenoxy)acetamido]-2-hydroxybicyclo[2.2.2]octan-1-yl}acetamide] | < 10 nM
COc1ccc(OC)c(CCC(=O)NC23CC(NC(=O)COc4ccc(Cl)c(F)c4)(C2)C3)c1 [Compound 455, N-{3-[2-(4-chloro-3-fluorophenoxy)acetamido]bicyclo[1.1.1]pentan-1-yl}-3-(2,5-dimethoxyphenyl)propanamide] | > 2000 nM
O=C(COc1ccc(Cl)cc1)NC12CCC(NC(=O)COc3ccc(OC(F)(F)F)c(F)c3)(CC1)CC2 [Compound 741, 2-(4-chlorophenoxy)-N-(4-{2-[3-fluoro-4-(trifluoromethoxy)phenoxy]acetamido}bicyclo[2.2.2]octan-1-yl)acetamide] | 10 to 50 nM
O=C(COc1ccc2c(c1)OC(F)(F)O2)NC12CC(NC(=O)COc3cnc(C(F)F)cn3)(C1)C2 [Compound 383, 2-[(2,2-difluoro-2H-1,3-benzodioxol-5-yl)oxy]-N-[3-(2-{[5-(difluoromethyl)pyrazin-2-yl]oxy}acetamido)bicyclo[1.1.1]pentan-1-yl]acetamide] | > 2000 nM
O=C(COc1ccc(Cl)c(F)c1)NC12CC(COc3ccccc3)(C1)C2 [Compound 612, 2-(4-chloro-3-fluorophenoxy)-N-[3-(phenoxymethyl)bicyclo[1.1.1]pentan-1-yl]acetamide] | > 2000 nM
COC(=O)c1cc(OCC(=O)NC23CC(NC(=O)COc4ccc(Cl)c(F)c4)(C2)C3)ccc1Cl [Compound 223, methyl 2-chloro-5-[2-({3-[2-(4-chloro-3-fluorophenoxy)acetamido]-bicyclo[1.1.1]pentan-1-yl}amino)-2-oxoethoxy]benzoate] | 500 to 2000 nM
O=C(COc1cc(F)c2cn[nH]c2c1)NC12CCC(NC(=O)COc3ccc(Cl)cc3)(CC1)[C@@H](O)C2 [Compound 725, 2-(4-chlorophenoxy)-N-[(25)-4-{2-[(4-fluoro-1H-indazol-6-yl)oxy]acetamido}-2-hydroxybicyclo[2.2.2]octan-1-yl]acetamide] | < 10 nM
CS(=O)(=O)c1ccc(OCC(=O)NC23CCC(NC(=O)COc4ccc(Cl)c(F)c4)(CC2)[C@@H](O)C3)cc1 [Compound 476, 2-(4-chloro-3-fluorophenoxy)-N-[(2S)-2-hydroxy-4-{2-[4-(methanesulfonyl)phenoxy]acetamido}bicyclo[2.2.2]octan-1-yl] acetamide] | 50 to 250 nM
CCc1cc(C)cc(OCC(=O)NC23CCC(NC(=O)COc4ccc(Cl)c(F)c4)(CC2)[C@@H](O)C3)c1 [Compound 463, 2-(4-chloro-3-fluorophenoxy)-N-{(2S)-4-[2-(3-ethyl-5-methylphenoxy)acetamido]-2-hydroxybicyclo[2.2.2]octan-1-yl}acetamide] | > 2000 nM
COC(=O)[C@H]1CC2(NC(=O)COc3ccc(Cl)c(F)c3)CCC1(NC(=O)COc1ccc(Cl)c(F)c1)CC2 [Compound 562, methyl (2S)-1,4-bis[2-(4-chloro-3-fluorophenoxy)acetamido]bicyclo[2.2.2]octane-2-carboxylate] | < 10 nM
O=C(COc1cccc(Cl)c1)NC12CC(NC(=O)COc3ccc(Cl)c(F)c3)(C1)C2 [Compound 146, 2-(4-chloro-3-fluorophenoxy)-N-{3-{2-(3-chlorophenoxy)acetamido}-bicyclo[1.1.1]pentan-1-yl}acetamide] | < 10 nM
O=C(COc1ccc(Cl)c(O)c1)NC12CCC(NC(=O)COc3ccc(Cl)c(F)c3)(CC1)[C@@H](O)C2 [Compound 574, 2-(4-chloro-3-fluorophenoxy)-N-{(2S)-4-[2-(4-chloro-3-hydroxyphenoxy)acetamido]-2-hydroxybicyclo[2.2.2]octan-1-yl}acetamide] | < 10 nM
O=C(COc1ccc(Cl)cc1)NC12CCC(NC(=O)COc3ccc(Cl)c(F)c3)(CC1)[C@@H](O)C2 [Compound 437, 2-(4-chloro-3-fluorophenoxy)-N-{(2S)-4-[2-(4-chlorophenoxy)acetamido]-2-hydroxybicyclo[2.2.2]octan-1-yl}acetamide] | < 10 nM
O=C(COc1ccc(Cl)c(F)c1)NC12CC(NC(=O)OCc3cccc(Cl)c3)(C1)C2 [Compound 164, (3-chlorophenyl)methyl {3-[2-(4-chloro-3-fluorophenoxy)-acetamido]bicyclo[1.1.1]pentan-1-yl}carbamate] | 500 to 2000 nM
CCc1cc(C)cc(OCC(=O)NC23CCC(NC(=O)COc4ccc(Cl)c(F)c4)(CC2)C[C@@H]3O)c1 [Compound 494, 2-(4-chloro-3-fluorophenoxy)-N-{(3S)-4-[2-(3-ethyl-5-methylphenoxy)acetamido]-3-hydroxybicyclo[2.2.2]octan-1-yl}acetamide] | 250 to 500 nM

SMILES | EC50
O=C(COc1ccc(Cl)c(F)c1)N[C@@H]1CC[C@]2(NC(=O)COc3ccc(Cl)c(F)c3)CC[C@H]1C2 (racemic) [Compound 653, rac-N,N′-[(1S,4S,5R)-bicyclo[3.2.1]octane-1,4-diyl]bis[2-(4-chloro-3-fluorophenoxy)acetamide]] | < 10 nM
N#Cc1ccc(OCC(=O)NC23CC(NC(=O)COc4ccc(Cl)c(F)c4)(C2)C3)nc1 [Compound 215, 2-(4-chloro-3-fluorophenoxy)-N-(3-{2-[(5-cyanopyridin-2-yl)oxy]acetamido}bicyclo[1.1.1]pentan-1-yl)acetamide] | 50 to 250 nM
O=C(COc1ccc(C(F)F)cc1)NC12CC(NC(=O)COc3ccc(C(F)F)cc3)(C1)C2 [Compound 389, N,N′-(bicyclo[1.1.1]pentane-1,3-diyl)bis{2-[4-(difluoromethyl)phenoxy]acetamide}] | 250 to 500 nM
O=C(COc1ccc(Cl)c(F)c1)NC12CCC(NC(=O)Cc3cccc(OC(F)(F)F)c3)(CC1)C(O)C2 (stereo not shown) [Compound 327, 2-(4-chloro-3-fluorophenoxy)-N-(3-hydroxy-4-{2-[3-(trifluoromethoxy)phenyl]acetamido}bicyclo[2.2.2]octan-1-yl)acetamide] | > 2000 nM
O=C(COc1ccc(F)c(C(F)F)c1)NC12CCC(NC(=O)COc3ccc(Cl)cc3)(CC1)[C@@H](O)C2 [Compound 774, 2-(4-chlorophenoxy)-N-[(2S)-4-{2-[3-(difluoromethyl)-4-fluorophenoxy]acetamido}-2-hydroxybicyclo[2.2.2]octan-1-yl]acetamide] | < 10 nM
COc1cncc(OCC(=O)NC23CCC(NC(=O)COc4ccc(Cl)c(F)c4)(CC2)[C@@H](O)C3)c1 [Compound 675, 2-(4-chloro-3-fluorophenoxy)-N-[(2S)-2-hydroxy-4-{2-[(5-methoxypyridin-3-yl)oxy]acetamido}bicyclo[2.2.2]octan-1-yl]acetamide] | 10 to 50 nM
COc1cc(OCC(=O)NC23CCC(NC(=O)COc4ccc(Cl)c(F)c4)(CC2)[C@@H](O)C3)ccc1F [Compound 794, 2-(4-chloro-3-fluorophenoxy)-N-{(2S)-4-[2-(4-fluoro-3-methoxyphenoxy)acetamido]-2-hydroxybicyclo[2.2.2]octan-1-yl}acetamide] | < 10 nM
O=C(COc1ccc(OC(F)(F)F)cc1)NC12CCC(NC(=O)COc3ccc(OC(F)(F)F)cc3)(CC1)[C@@H](O)C2 [Compound 785, N,N′-[(2S)-2-hydroxybicyclo[2.2.2]octane-1,4-diyl]bis{2-[4-(trifluoromethoxy)phenoxy]acetamide}] | 50 to 250 nM
O=C(COc1ccc(Cl)c(F)c1)NC12CCC(NC(=O)COc3ccc(C(F)(F)F)cc3)(CC1)[C@@H](O)C2 [Compound 507, 2-(4-chloro-3-fluorophenoxy)-N-[(3S)-3-hydroxy-4-{2-[4-(trifluoromethyl)phenoxy]acetamido}bicyclo[2.2.2]octan-1-yl]acetamide] | < 10 nM
O=C(COc1ccc(Cl)c(F)c1)NC12CC(NC(=O)C(OCCO)c3ccc(F)cc3)(C1)C2 (stereo not shown) [Compound 779, N-{3-[2-(4-chloro-3-fluorophenoxy)acetamido]bicyclo[1.1.1]pentan-1-yl}-2-(4-fluorophenyl)-2-(2-hydroxyethoxy)acetamide] | > 2000 nM
O=C(COc1ccc(Cl)c(F)c1)NC12CCC(NC(=O)COc3ccc(Cl)cc3)(CC1)[C@@H](O)C2 [Compound 454, 2-(4-chloro-3-fluorophenoxy)-N-{(3S)-4-[2-(4-chlorophenoxy)acetamido]-3-hydroxybicyclo[2.2.2]octan-1-yl}acetamide] | < 10 nM
O=C(COc1ccc(Cl)cc1)NC12CC(NC(=O)COc3ccc(F)c(Cl)c3)(C1)C2 [Compound 546, 2-(3-chloro-4-fluorophenoxy)-N-{3-[2-(4-chlorophenoxy)acetamido]bicyclo[1.1.1]pentan-1-yl}acetamide] | < 10 nM
O=C(COc1ccc(F)c(C(F)(F)F)c1)NC12CCC(NC(=O)COc3ccc(Cl)c(F)c3)(CC1)[C@@H](O)C2 [Compound 848, 2-(4-chloro-3-fluorophenoxy)-N-[(2S)-4-{2-[4-fluoro-3-(trifluoromethyl)phenoxy]acetamido}-2-hydroxybicyclo[2.2.2]octan-1-yl]acetamide] | < 10 nM
COc1ncc(OCC(=O)NC23CCC(NC(=O)COc4ccc(Cl)cc4)(CC2)[C@@H](O)C3)cn1 [Compound 635, 2-(4-chlorophenoxy)-N-[(2S)-2-hydroxy-4-{2-[(2-methoxypyrimidin-5-yl)oxy]acetamido}bicyclo[2.2.2]octan-1-yl]acetamide] | 10 to 50 nM
O=C(COc1ccc(Cl)c(F)c1)NC12CCC(NC(=O)COc3ccnn(CC(F)(F)F)c3=O)(CC1)C(O)C2 (stereo not shown) [Compound 333, 2-(4-chloro-3-fluorophenoxy)-N-[3-hydroxy-4-(2-{[3-oxo-2-(2,2,2-trifluoroethyl)-2,3-dihydropyridazin-4-yl]oxy}acetamido)bicyclo[2.2.2]octan-1-yl]acetamide] | 250 to 500 nM
